Data from publication PMC8041284, “Tunable Methacrylamides for Covalent Ligand Directed Release Chemistry” (Journal of the American Chemical Society, 2021).

Each molecule was assayed against T1, BTK (Homo sapiens, UniProt Q06187) (assay: not given). Conditions: 0.75 uM BTK, […] probe 3l, 15 min preincubation, 10 µM, inhibitor, BTK inhibition (%).
T1 sequence (Q06187 402-655 limits assumed): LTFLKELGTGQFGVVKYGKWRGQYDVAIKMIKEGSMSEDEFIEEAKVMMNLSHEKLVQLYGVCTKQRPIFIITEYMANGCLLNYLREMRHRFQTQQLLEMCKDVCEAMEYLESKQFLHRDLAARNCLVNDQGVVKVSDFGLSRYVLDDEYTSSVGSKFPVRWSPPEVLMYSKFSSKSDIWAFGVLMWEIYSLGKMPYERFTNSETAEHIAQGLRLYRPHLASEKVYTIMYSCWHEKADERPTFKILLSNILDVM

In order of rising “BTK inhibition (%)” value:
1. CC(C(=O)O)c1cccc(Oc2ccccc2)c1 (stereo not drawn) [PCM-0086452]  -45.1%
2. C[C@@H]1O[C@@H]1P(=O)(O)O [PCM-0216062]  -39.1%
3. Cc1cc(C)nc(NS(=O)(=O)c2ccc(N)cc2)n1 [PCM-0086513]  -23.3%
4. C/C=C(/C)C(=O)O[C@H]1[C@@H](OC(C)=O)c2c(ccc3ccc(=O)oc23)OC1(C)C [PCM-0216546]  -14.7%
5. Cc1c(O)c(=O)ccn1C [PCM-0090746]  -11.9%
6. COc1ccc2[nH]c([S@@+]([O-])Cc3ncc(C)c(OC)c3C)nc2c1 [PCM-0214815]  -10.9%
7. COc1cc(NS(=O)(=O)c2ccc(N)cc2)nc(OC)n1 [PCM-0086362]  -7.8%
8. N[C@@H](C=O)[C@@H](O)[C@H](O)[C@H](O)CO [PCM-0214928]  -6.2%
9. CC(=O)Oc1ccccc1C(=O)O [PCM-0214911]  1.6%
10. CC[C@H]1OC(=O)[C@H](C)[C@@H](O[C@H]2C[C@@](C)(OC)[C@@H](O)[C@H](C)O2)[C@H](C)[C@@H](O[C@@H]2O[C@H](C)C[C@H](N(C)C)[C@H]2O)[C@](C)(O)C[C@@H](C)CN(C)[C@H](C)[C@@H](O)[C@]1(C)O [PCM-0214754]  1.6%
11. O=C(O)O [PCM-0216036]  4.3%
12. CN1C2=C3N=c4ccccc4=C3CCN2C(=O)c2ccccc21 [PCM-0215051]  4.7%
13. CC[C@H]1OC(=O)[C@H](C)[C@@H](O[C@H]2C[C@@](C)(OC)[C@@H](O)[C@H](C)O2)[C@H](C)[C@@H](O[C@@H]2O[C@H](C)C[C@H](N(C)C)[C@H]2O)[C@](C)(O)C[C@@H](C)C(=O)[C@H](C)[C@@H](O)[C@]1(C)O [PCM-0214693]  5.4%
14. COc1ccc2c(c1)c(CC(=O)O)c(C)n2C(=O)c1ccc(Cl)cc1 [PCM-0065532]  5.5%
15. CCC(=O)NS(=O)(=O)c1ccc(-c2c(-c3ccccc3)noc2C)cc1 [PCM-0214825]  5.5%
16. CCCC(CCC)C(=O)O [PCM-0215159]  6.9%
17. C=C1[C@H](CO)[C@@H](O)C[C@@H]1n1cnc2c(=O)[nH]c(N)nc21 [PCM-0216093]  11%
18. CC[C@H]1OC(=O)[C@H](C)[C@@H](O[C@H]2C[C@@](C)(OC)[C@@H](O)[C@H](C)O2)[C@H](C)[C@@H](O[C@@H]2O[C@H](C)C[C@H](N(C)C)[C@H]2O)[C@](C)(O)C[C@@H](C)CN(C)[C@H](C)[C@@H](O)[C@]1(C)O [PCM-0216649]  11.7%
19. CCOc1ccccc1OCCN[C@H](C)Cc1ccc(OC)c(S(N)(=O)=O)c1 [PCM-0214853]  13.2%
20. CC[C@]12C=CCN3CC[C@]4(C(=C(C(=O)OC)C1)Nc1ccccc14)[C@@H]32 [PCM-0215925]  13.9%
21. C/C(=C\C(=O)OCCCCCCCCC(=O)O)C[C@@H]1OC[C@H](C[C@@H]2O[C@H]2[C@@H](C)[C@H](C)O)[C@@H](O)[C@H]1O [PCM-0215997]  13.9%
22. CN1CC[C@H](c2c(O)cc(O)c3c(=O)cc(-c4ccccc4Cl)oc23)[C@H](O)C1 [PCM-0095354]  17.2%
23. COc1cc2c3cc1Oc1c(OC)c(OC)cc4c1[C@@H](Cc1ccc(O)c(c1)Oc1ccc(cc1)C[C@@H]3N(C)CC2)N(C)CC4 [PCM-0214866]  17.8%
24. O=C(Nc1ccc2c(O)cc(S(=O)(=O)O)cc2c1)Nc1ccc2c(O)cc(S(=O)(=O)O)cc2c1 [PCM-0215497]  21.6%
25. Cc1cc(C2CCCCC2)n(O)c(=O)c1 [PCM-0086120]  28%
26. COc1cc(Nc2ncc(F)c(Nc3ccc4c(n3)NC(=O)C(C)(C)O4)n2)cc(OC)c1OC [PCM-0095093]  31.7%
27. CN(C)[C@@H]1C(=O)C(C(N)=O)=C(O)[C@@]2(O)C(=O)C3=C(O)c4c(O)cccc4[C@@](C)(O)[C@H]3[C@H](O)[C@@H]12 [PCM-0214652]  33.5%
28. O=c1c(O)c(-c2ccc(O)c(O)c2)oc2cc(O)cc(O)c12 [PCM-0065486]  39.3%
29. CN(c1ncccc1CNc1nc(Nc2ccc3c(c2)CC(=O)N3)ncc1C(F)(F)F)S(C)(=O)=O [PCM-0095340]  78.6%
30. Cc1cc(Nc2cc(N3CCN(C)CC3)nc(/C=C/c3ccccc3)n2)n[nH]1 [PCM-0095056]  91%

Same assay, conditions: 0.75 uM BTK, […] probe 3l, 15 min preincubation; 10 µM; inhibitor

In order of falling “BTK inhibition (%)” value:
1. O=C(Nc1ccc(Oc2ccc(Cl)cc2)c(Cl)c1)c1cc(I)cc(I)c1O [PCM-0216018]  37.1%
2. COC(=O)C1=C(C)NC(C)=C(C(=O)OCCN2CCN(C(c3ccccc3)c3ccccc3)CC2)C1c1cccc([N+](=O)[O-])c1 (stereo not drawn) [PCM-0090281]  34.2%
3. CO[C@H]1/C=C/O[C@@]2(C)Oc3c(C)c(O)c4c(O)c(c(/C=N/N5CCN(C)CC5)c(O)c4c3C2=O)NC(=O)/C(C)=C\C=C\[C@H](C)[C@H](O)[C@@H](C)[C@@H](O)[C@@H](C)[C@H](OC(C)=O)[C@@H]1C [PCM-0086069]  32.7%
4. Cc1cc(C(C#N)c2ccc(Cl)cc2)c(Cl)cc1NC(=O)c1cc(I)cc(I)c1O (stereo not drawn) [PCM-0086145]  20.2%
5. COc1ccc(C=O)cc1 [PCM-0216000]  17%
6. C[N+]1(C)[C@@H]2CC(OC(=O)[C@H](CO)c3ccccc3)C[C@H]1[C@@H]1O[C@@H]12 (stereo partly drawn) [PCM-0095246]  10.9%
7. ClC(Cl)=C(c1ccc(Cl)cc1)c1ccc(Cl)cc1 [PCM-0216164]  10.8%
8. CCN(CC)CCOC(=O)C(O)(c1ccccc1)c1ccccc1 [PCM-0214873]  8.6%
9. CC(=O)N1C[C@H](O)C[C@H]1C(=O)O [PCM-0215090]  8.6%
10. C1CCN2C[C@H]3C[C@H](CN4CCCC[C@@H]34)[C@H]2C1 [PCM-0216422]  6.9%
11. CN1C2CC(OC(=O)C(CO)c3ccccc3)CC1C(O)C2 (stereo not drawn) [PCM-0216645]  6.9%
12. C=C(C)[C@H]1Cc2c(ccc3c2O[C@@H]2COc4cc(OC)c(OC)cc4[C@@H]2C3=O)O1 [PCM-0214933]  6.2%
13. COc1ccc(C(CN(C)C)C2(O)CCCCC2)cc1 (stereo not drawn) [PCM-0065195]  6.2%
14. CCNc1nc(Cl)nc(NC(C)C)n1 [PCM-0215964]  3.9%
15. O=C/C=C/c1ccccc1 [PCM-0215920]  3.1%
16. CCCCC(C#N)(Cn1cncn1)c1ccc(Cl)cc1 (stereo not drawn) [PCM-0216598]  3.1%
17. O=c1ccc2cc(O[C@@H]3O[C@H](CO)[C@@H](O)[C@H](O)[C@H]3O)c(O)cc2o1 [PCM-0091361]  0%
18. CC(C)OC(=O)[C@H](C)N[P@](=O)(CO[C@H](C)Cn1cnc2c(N)ncnc21)Oc1ccccc1 [PCM-0215482]  -3.1%
19. C[N+]1(C)[C@@H]2CC(OC(=O)C(O)(c3cccs3)c3cccs3)C[C@H]1[C@@H]1O[C@@H]12 (stereo partly drawn) [PCM-0095323]  -5.4%
20. CC(=O)O[C@H]1C[C@@H]2CC[C@@H]3[C@H](CC[C@@]4(C)[C@H]3C[C@H]([N+]3(C)CCCCC3)[C@@H]4OC(C)=O)[C@@]2(C)C[C@@H]1N1CCCCC1 [PCM-0214623]  -6.2%
21. CN(C)C(=O)Oc1cccc([N+](C)(C)C)c1 [PCM-0064762]  -7.7%
22. NC(=O)c1ncn([C@@H]2O[C@H](CO)[C@@H](O)[C@H]2O)n1 [PCM-0065438]  -11.7%
23. COc1ccc2c(c1)[nH]c1c(C)nccc12 [PCM-0088555]  -17.1%
24. CC(C)[N+]1(C)[C@@H]2CC[C@H]1CC(OC(=O)C(CO)c1ccccc1)C2 (stereo partly drawn) [PCM-0214646]  -24.9%
25. O=C(O[C@H]1CN2CCC1CC2)N1CCc2ccccc2[C@@H]1c1ccccc1 [PCM-0095538]  -27.2%
26. c1c2c(cc3c1OCO3)-c1cc3ccc4c(c3c[n+]1CC2)OCO4 [PCM-0216022]  -46.8%

Same assay, conditions: 10 µM, inhibitor

In order of rising “BTK inhibition (%)” value:
1. COC1=C[C@@H]2[C@@H]3Cc4ccc(OC)c(O)c4[C@]2(CCN3C)CC1=O [PCM-0214970]  0%
2. COC1=C[C@@H]2[C@@H]3Cc4ccc(OC)c(O)c4[C@]2(CCN3C)CC1=O [PCM-0090951]  14.8%

Same assay, conditions: 10 µM; inhibitor

In order of rising “BTK inhibition (%)” value:
1. C[C@H]1CCC2N(C1)C[C@H]1C3CC4[C@@H](CC(=O)C5C[C@@H](O)CC[C@@]54C)C3CCC1[C@]2(C)O (stereo partly drawn) [PCM-0216425]  -17.8%
2. C[C@H]1CC[C@@H]2N(C1)C[C@H]1[C@@H]3C[C@H]4[C@@H](CC(=O)[C@H]5C[C@@H](O)CC[C@@]54C)[C@@H]3CC[C@H]1[C@]2(C)O [PCM-0216485]  -13.9%
3. O=c1ccc2c(O)c3ccoc3cc2o1 [PCM-0216332]  -11.6%
4. COC(=O)C1=CCCN(C)C1 [PCM-0003961]  -10.1%
5. COc1ccc(C=O)cc1O [PCM-0215127]  -7.8%
6. Cc1c([C@H](C)[C@@H]2NC[C@@H](C)C[C@H]2O)ccc2c1C[C@H]1[C@H]2CC=C2C[C@@H](O)CC[C@@]21C [PCM-0214977]  -2.3%
7. CN1C(=O)[C@@]23C[C@]4([C@]56C[C@@]78SS[C@@](CO)(C(=O)N7[C@H]5Nc5ccccc56)N(C)C8=O)c5ccccc5N[C@@H]4N2C(=O)[C@]1(CO)SS3 [PCM-0215602]  5.4%
8. CN[C@H]1[C@H](O)[C@H](O[C@@H]2[C@@H](O)[C@H](O[C@H]3O[C@H](C(C)O)[C@@H](O)[C@H](O)[C@H]3N)[C@@H](N)C[C@H]2N)OC[C@@]1(C)O (stereo partly drawn) [PCM-0215175]  6%
9. Nc1ncnc2c1ccn2[C@@H]1O[C@H](CO)[C@@H](O)[C@H]1O [PCM-0215658]  10.8%
10. COc1ccc(/C=C/c2cc(OC)cc(OC)c2)cc1 [PCM-0214992]  34.2%

The molecules below were run against T1, BTK (assay: biochemical). Conditions: read-out: BTK inhibition (%), 0.75 uM BTK, […] probe 3l, 15 min preincubation.

In order of falling inhibition at 10 µM:
1. Cc1cc(Nc2cc(N3CCN(C)CC3)nc(/C=C/c3ccccc3)n2)n[nH]1 [PCM-0095056]  85.5%
2. CN(c1ncccc1CNc1nc(Nc2ccc3c(c2)CC(=O)N3)ncc1C(F)(F)F)S(C)(=O)=O [PCM-0095340]  84.8%
3. O=c1c(O)c(-c2ccc(O)c(O)c2)oc2cc(O)cc(O)c12 [PCM-0065486]  48.2%
4. Cc1cc(C2CCCCC2)n(O)c(=O)c1 [PCM-0086120]  39.7%
5. CN(C)[C@@H]1C(=O)C(C(N)=O)=C(O)[C@@]2(O)C(=O)C3=C(O)c4c(O)cccc4[C@@](C)(O)[C@H]3[C@H](O)[C@@H]12 [PCM-0214652]  35.8%
6. COc1cc(Nc2ncc(F)c(Nc3ccc4c(n3)NC(=O)C(C)(C)O4)n2)cc(OC)c1OC [PCM-0095093]  32.4%
7. CN1CC[C@H](c2c(O)cc(O)c3c(=O)cc(-c4ccccc4Cl)oc23)[C@H](O)C1 [PCM-0095354]  29.7%
8. COc1cc2c3cc1Oc1c(OC)c(OC)cc4c1[C@@H](Cc1ccc(O)c(c1)Oc1ccc(cc1)C[C@@H]3N(C)CC2)N(C)CC4 [PCM-0214866]  21.4%
9. CC[C@]12C=CCN3CC[C@]4(C(=C(C(=O)OC)C1)Nc1ccccc14)[C@@H]32 [PCM-0215925]  10.8%
10. CCOc1ccccc1OCCN[C@H](C)Cc1ccc(OC)c(S(N)(=O)=O)c1 [PCM-0214853]  7%
